Experimental data taken from publication PMC5218480 (PLoS ONE, 2017).

Test system: MV-4-11 cells
Assay: Gene expression microarray analysis (Affymetrix PrimeView) and GSEA
Format: cell-based, human
Set-up: RFU PODN (11730768_x_at) / Fold change /veh PODN (11730768_x_at) / RFU LINC00158 (11744669_a_at) / Fold change /veh LINC00158 (11744669_a_at) / RFU DUSP10 (11751237_a_at) / Fold change /veh DUSP10 (11751237_a_at) / RFU ID3 (11757404_x_at) / Fold change /veh ID3 (11757404_x_at) / RFU PLEKHG5 (11737974_s_at) / Fold change /veh PLEKHG5 (11737974_s_at) / RFU LRRC4B (11730491_at) / Fold change /veh LRRC4B (11730491_at) / RFU GIMAP4 (11747438_a_at) / Fold change /veh GIMAP4 (11747438_a_at) / RFU KRT8 (11758183_x_at) / Fold change /veh KRT8 (11758183_x_at) / RFU CNN1 (11734310_a_at) / Fold change /veh CNN1 (11734310_a_at) / RFU VPS37D (11726825_at) / Fold change /veh VPS37D (11726825_at) / RFU C10orf10 (11716522_x_at) / Fold change /veh C10orf10 (11716522_x_at) / RFU KIR2DL2 /// KIR2DL4 /// KIR2DL5A /// KIR2DL5B /// KIR2DS1 /// KIR2DS2 /// KIR2DS3 /// KIR2DS4 /// KIR3DL3 /// KIR3DL3 /// KIR3DS1 (11738374_at) / Fold change /veh KIR2DL2 /// KIR2DL4 /// KIR2DL5A /// KIR2DL5B /// KIR2DS1 /// KIR2DS2 /// KIR2DS3 /// KIR2DS4 /// KIR3DL3 /// KIR3DL3 /// KIR3DS1 (11738374_at) / RFU C1QL1 (11718748_at) / Fold change /veh C1QL1 (11718748_at) / RFU TMPRSS4 (11747572_a_at) / Fold change /veh TMPRSS4 (11747572_a_at) / RFU HAMP (11756126_x_at) / Fold change /veh HAMP (11756126_x_at) / RFU RNFT2 (11725882_a_at) / Fold change /veh RNFT2 (11725882_a_at) / RFU NR4A2 (11747474_a_at) / Fold change /veh NR4A2 (11747474_a_at) / RFU ABCC12 (11746883_a_at) / Fold change /veh ABCC12 (11746883_a_at) / RFU TMEM136 (11760407_x_at) / Fold change /veh TMEM136 (11760407_x_at) / RFU CLDN22 /// WWC2 (11732394_at) / Fold change /veh CLDN22 /// WWC2 (11732394_at) / RFU HLA-DPB1 (11760878_x_at) / Fold change /veh HLA-DPB1 (11760878_x_at) / RFU SPINT1 (11716480_a_at) / Fold change /veh SPINT1 (11716480_a_at) / RFU GAP43 (11754022_s_at) / Fold change /veh GAP43 (11754022_s_at) / RFU A4GNT (11735810_at) / Fold change /veh A4GNT (11735810_at) / RFU PRB3 (11715151_x_at) / Fold change /veh PRB3 (11715151_x_at) / RFU TUBB4B (11761932_at) / Fold change /veh TUBB4B (11761932_at) / RFU CAPN14 (11732068_a_at) / Fold change /veh CAPN14 (11732068_a_at) / RFU TMCC2 (11721928_a_at) / Fold change /veh TMCC2 (11721928_a_at) / RFU IRGQ (11745062_a_at) / Fold change /veh IRGQ (11745062_a_at) / RFU FAM174B (11720279_a_at) / Fold change /veh FAM174B (11720279_a_at) / RFU TMPRSS4 (11748680_a_at) / Fold change /veh TMPRSS4 (11748680_a_at) / RFU FAM212B (11763350_a_at) / Fold change /veh FAM212B (11763350_a_at) / RFU PLEKHG5 (11743358_a_at) / Fold change /veh PLEKHG5 (11743358_a_at) / RFU ZSCAN30 (11745921_a_at) / Fold change /veh ZSCAN30 (11745921_a_at) / RFU CMKLR1 (11741424_a_at) / Fold change /veh CMKLR1 (11741424_a_at) / RFU LOC101060620 /// MAPK8IP1 (11723275_at) / Fold change /veh LOC101060620 /// MAPK8IP1 (11723275_at) / RFU SPTSSB (11747773_x_at) / Fold change /veh SPTSSB (11747773_x_at) / RFU PRSS12 (11739890_at) / Fold change /veh PRSS12 (11739890_at) / RFU BIN1 (11741810_x_at) / Fold change /veh BIN1 (11741810_x_at) / RFU WNT11 (11732464_a_at) / Fold change /veh WNT11 (11732464_a_at) / RFU C10orf10 (11716521_a_at) / Fold change /veh C10orf10 (11716521_a_at) / RFU C5orf56 (11738089_at) / Fold change /veh C5orf56 (11738089_at) / RFU CYB561 (11721691_x_at) / Fold change /veh CYB561 (11721691_x_at) / RFU ANKRD19P (11752326_a_at) / Fold change /veh ANKRD19P (11752326_a_at) / RFU OR2T12 /// OR2T33 /// OR2T8 (11738714_s_at) / Fold change /veh OR2T12 /// OR2T33 /// OR2T8 (11738714_s_at) / RFU VCAN (11748164_a_at) / Fold change /veh VCAN (11748164_a_at) / RFU JSRP1 (11732532_at) / Fold change /veh JSRP1 (11732532_at) / RFU KRTAP10-11 (11738290_x_at) / Fold change /veh KRTAP10-11 (11738290_x_at) / RFU MYO3A (11730013_a_at) / Fold change /veh MYO3A (11730013_a_at) / RFU EBF3 (11725865_a_at) / Fold change /veh EBF3 (11725865_a_at) / RFU CAMK2N1 (11719241_x_at) / Fold change /veh CAMK2N1 (11719241_x_at) / RFU C5orf56 (11738088_a_at) / Fold change /veh C5orf56 (11738088_a_at) / RFU OLFML3 (11715873_a_at) / Fold change /veh OLFML3 (11715873_a_at) / RFU LOC100653217 /// NTM (11731650_a_at) / Fold change /veh LOC100653217 /// NTM (11731650_a_at) / RFU MAPK11 (11762145_a_at) / Fold change /veh MAPK11 (11762145_a_at) / RFU FIZ1 (11724087_x_at) / Fold change /veh FIZ1 (11724087_x_at) / RFU OASL (11726364_x_at) / Fold change /veh OASL (11726364_x_at) / RFU SOX15 (11748057_x_at) / Fold change /veh SOX15 (11748057_x_at) / RFU CD79A (11719716_a_at) / Fold change /veh CD79A (11719716_a_at) / RFU HIST1H1D (11736915_at) / Fold change /veh HIST1H1D (11736915_at) / RFU CASKIN2 (11723855_a_at) / Fold change /veh CASKIN2 (11723855_a_at) / RFU LOC730098 (11760151_x_at) / Fold change /veh LOC730098 (11760151_x_at) / RFU OR4N2 (11742367_at) / Fold change /veh OR4N2 (11742367_at) / RFU PRRT2 (11749266_a_at) / Fold change /veh PRRT2 (11749266_a_at) / RFU SNX32 (11753110_a_at) / Fold change /veh SNX32 (11753110_a_at) / RFU CDHR5 (11726645_a_at) / Fold change /veh CDHR5 (11726645_a_at) / RFU RCAN1 (11760418_a_at) / Fold change /veh RCAN1 (11760418_a_at) / RFU FAM167A (11723789_a_at) / Fold change /veh FAM167A (11723789_a_at) / RFU FAM26E (11764081_at) / Fold change /veh FAM26E (11764081_at) / RFU ISYNA1 (11749810_s_at) / Fold change /veh ISYNA1 (11749810_s_at) / RFU ACY1 (11761880_at) / Fold change /veh ACY1 (11761880_at) / RFU 11764098_at / Fold change /veh 11764098_at / RFU SAMD14 (11745864_x_at) / Fold change /veh SAMD14 (11745864_x_at) / RFU NPB (11741838_a_at) / Fold change /veh NPB (11741838_a_at) / RFU TMPRSS6 (11731388_a_at) / Fold change /veh TMPRSS6 (11731388_a_at) / RFU KRTAP10-2 (11738614_at) / Fold change /veh KRTAP10-2 (11738614_at) / RFU ARHGAP8 /// PRR5-ARHGAP8 (11727945_x_at) / Fold change /veh ARHGAP8 /// PRR5-ARHGAP8 (11727945_x_at) / RFU KRTAP5-7 /// NADSYN1 (11734609_at) / Fold change /veh KRTAP5-7 /// NADSYN1 (11734609_at) / RFU RASL12 (11751679_a_at) / Fold change /veh RASL12 (11751679_a_at) / RFU CDKN2B (11736163_a_at) / Fold change /veh CDKN2B (11736163_a_at) / RFU PRF1 (11729649_at) / Fold change /veh PRF1 (11729649_at) / RFU, ZNF638 /// ZNF638-IT1 / Fold change vs veh, ZNF638 /// ZNF638-IT1 / RFU, PANK3 / Fold change vs veh, PANK3 / RFU, SH3YL1 / Fold change vs veh, SH3YL1 / RFU, ZEB2 / Fold change vs veh, ZEB2 / RFU, NRIP1 / Fold change vs veh, NRIP1 / RFU, PTTG1IP / Fold change vs veh, PTTG1IP / RFU, CAPN2 / Fold change vs veh, CAPN2 / RFU, MED14 / Fold change vs veh, MED14 / RFU, SNORA58 / Fold change vs veh, SNORA58 / RFU, C1orf63 / Fold change vs veh, C1orf63 / RFU, LRRFIP1 / Fold change vs veh, LRRFIP1 / RFU, NDUFAF7 / Fold change vs veh, NDUFAF7 / RFU, SLC12A2 / Fold change vs veh, SLC12A2 / RFU, IBTK / Fold change vs veh, IBTK / RFU, ESF1 / Fold change vs veh, ESF1 / Fold change vs veh, TMEM50B / RFU, TAOK1 / Fold change vs veh, TAOK1 / RFU, ACBD3 / Fold change vs veh, ACBD3 / RFU, TMA16 / Fold change vs veh, TMA16 / RFU, RWDD3 / Fold change vs veh, RWDD3 / RFU, BCAT1 / Fold change vs veh, BCAT1 / RFU, EDEM3 / Fold change vs veh, EDEM3 / RFU, TMEM33 / Fold change vs veh, TMEM33 / RFU, WDR75 / Fold change vs veh, WDR75 / RFU, AHCTF1 / Fold change vs veh, AHCTF1 / RFU, TFRC / Fold change vs veh, TFRC / RFU, ZDHHC17 / Fold change vs veh, ZDHHC17 / RFU, NOM1 / Fold change vs veh, NOM1 / RFU, ARL8B / Fold change vs veh, ARL8B / RFU, ZBTB11 / Fold change vs veh, ZBTB11 / RFU, TAMM41 / Fold change vs veh, TAMM41 / RFU, KIAA1704 /// LOC100996395 / Fold change vs veh, KIAA1704 /// LOC100996395 / RFU, ING1 / Fold change vs veh, ING1 / RFU, TRMT61B / Fold change vs veh, TRMT61B / RFU, FUBP3 / Fold change vs veh, FUBP3 / RFU, TP53 / Fold change vs veh, TP53 / RFU, TNKS2 / Fold change vs veh, TNKS2 / RFU, ZFP14 / Fold change vs veh, ZFP14 / RFU, ACTR2 / Fold change vs veh, ACTR2 / RFU, PPP3R1 / Fold change vs veh, PPP3R1 / RFU, PIK3R1 / Fold change vs veh, PIK3R1 / RFU, HNRNPA1 / Fold change vs veh, HNRNPA1 / RFU, RNF170 / Fold change vs veh, RNF170 / RFU, ZNF28 / Fold change vs veh, ZNF28 / RFU, RNGTT / Fold change vs veh, RNGTT / RFU, OGT / Fold change vs veh, OGT / RFU, BRD1 / Fold change vs veh, BRD1 / RFU, MARS / Fold change vs veh, MARS / RFU, ZNF655 / Fold change vs veh, ZNF655 / RFU, FAHD1 / Fold change vs veh, FAHD1 / RFU, BDP1 / Fold change vs veh, BDP1 / RFU, LRRCC1 / Fold change vs veh, LRRCC1 / RFU, ARID1A / Fold change vs veh, ARID1A / RFU, ZNF146 / Fold change vs veh, ZNF146 / RFU, ZNF330 / Fold change vs veh, ZNF330 / RFU, GPN3 / Fold change vs veh, GPN3 / RFU, C9orf123 / Fold change vs veh, C9orf123 / RFU, N4BP2L2 / Fold change vs veh, N4BP2L2 / RFU, ARFIP1 / Fold change vs veh, ARFIP1 / RFU, FAM179B / Fold change vs veh, FAM179B / RFU, BCL10 / Fold change vs veh, BCL10 / RFU, UHRF1BP1L / Fold change vs veh, UHRF1BP1L / RFU, BET1 / Fold change vs veh, BET1 / RFU, CNOT2 / Fold change vs veh, CNOT2 / RFU, ZNF268 / Fold change vs veh, ZNF268 / Fold change vs veh, ZNF507 / RFU, DGCR2 / Fold change vs veh, DGCR2 / RFU, WDSUB1 / Fold change vs veh, WDSUB1 / Fold change vs veh, HSP90B1 /// MIR3652 / RFU, ADSS / Fold change vs veh, ADSS / RFU, GK / Fold change vs veh, GK / RFU, ZNF148 / Fold change vs veh, ZNF148 / RFU, TAF9 / Fold change vs veh, TAF9 / RFU, SLC1A5 / Fold change vs veh, SLC1A5 / RFU, SLMO2 / Fold change vs veh, SLMO2 / RFU, ABCC4 / Fold change vs veh, ABCC4 / RFU, LOC101060439 /// RAP1B / Fold change vs veh, LOC101060439 /// RAP1B / RFU, RFX7 / Fold change vs veh, RFX7 / RFU, GTPBP10 / Fold change vs veh, GTPBP10 / RFU, CNEP1R1 / Fold change vs veh, CNEP1R1 / RFU, BIVM-ERCC5 /// ERCC5 / Fold change vs veh, BIVM-ERCC5 /// ERCC5 / RFU, ILF3 / Fold change vs veh, ILF3 / RFU 11762660_at / Fold change /veh 11762660_at / RFU VCAN (11757783_s_at) / Fold change /veh VCAN (11757783_s_at) / RFU DDX43 (11728927_at) / Fold change /veh DDX43 (11728927_at) / RFU KRT8 (11758188_x_at) / Fold change /veh KRT8 (11758188_x_at) / RFU NKD1 (11759106_at) / Fold change /veh NKD1 (11759106_at) / RFU SRD5A1 (11742802_a_at) / Fold change /veh SRD5A1 (11742802_a_at) / RFU TPSAB1 /// TPSB2 (11721975_s_at) / Fold change /veh TPSAB1 /// TPSB2 (11721975_s_at) / RFU GSTM3 (11746129_a_at) / Fold change /veh GSTM3 (11746129_a_at) / RFU IL23R (11737362_x_at) / Fold change /veh IL23R (11737362_x_at) / RFU TMEM51 (11727254_a_at) / Fold change /veh TMEM51 (11727254_a_at) / RFU PIWIL2 (11732686_x_at) / Fold change /veh PIWIL2 (11732686_x_at) / RFU ORM1 (11744905_x_at) / Fold change /veh ORM1 (11744905_x_at) / RFU CCDC152 (11743942_at) / Fold change /veh CCDC152 (11743942_at) / RFU ECM1 (11717891_a_at) / Fold change /veh ECM1 (11717891_a_at) / RFU IL23R (11748794_a_at) / Fold change /veh IL23R (11748794_a_at) / RFU TNFAIP8L3 (11732012_x_at) / Fold change /veh TNFAIP8L3 (11732012_x_at) / RFU MBOAT4 (11741988_at) / Fold change /veh MBOAT4 (11741988_at) / RFU 11764193_at / Fold change /veh 11764193_at / RFU TMEM53 (11763286_at) / Fold change /veh TMEM53 (11763286_at) / RFU MAGEB2 (11727129_at) / Fold change /veh MAGEB2 (11727129_at) / RFU TMEM200A (11744735_a_at) / Fold change /veh TMEM200A (11744735_a_at) / RFU CCDC152 (11751479_a_at) / Fold change /veh CCDC152 (11751479_a_at) / RFU FAM211A (11726209_a_at) / Fold change /veh FAM211A (11726209_a_at) / RFU RGS16 (11746705_a_at) / Fold change /veh RGS16 (11746705_a_at) / RFU VCAN (11755009_s_at) / Fold change /veh VCAN (11755009_s_at) / RFU RHOB (11743442_s_at) / Fold change /veh RHOB (11743442_s_at) / RFU RGS16 (11720943_a_at) / Fold change /veh RGS16 (11720943_a_at) / RFU RGS16 (11720944_at) / Fold change /veh RGS16 (11720944_at) / RFU, VPS4B / Fold change vs veh, VPS4B / RFU, CREB1 / Fold change vs veh, CREB1 / RFU, DNAJC13 / Fold change vs veh, DNAJC13 / RFU, GNAQ / Fold change vs veh, GNAQ / RFU, CDK5R1 / Fold change vs veh, CDK5R1 / RFU, ZRANB3 / Fold change vs veh, ZRANB3 / RFU, CUL4A / Fold change vs veh, CUL4A / RFU, CCNY / Fold change vs veh, CCNY / RFU, UFL1 / Fold change vs veh, UFL1 / RFU, COG3 / Fold change vs veh, COG3 / RFU, DIAPH2 / Fold change vs veh, DIAPH2 / RFU, SKA2 / Fold change vs veh, SKA2 / RFU, AFF3 / Fold change vs veh, AFF3 / RFU, LMF1 / Fold change vs veh, LMF1 / RFU, IPO11 / Fold change vs veh, IPO11 / RFU, DFFB / Fold change vs veh, DFFB / RFU, FOXP1 / Fold change vs veh, FOXP1 / RFU, CARD8 / Fold change vs veh, CARD8 / RFU, STRN3 / Fold change vs veh, STRN3 / RFU, ADK / Fold change vs veh, ADK / RFU, RASSF2 / Fold change vs veh, RASSF2 / RFU, WIPF1 / Fold change vs veh, WIPF1 / RFU, LARP1B / Fold change vs veh, LARP1B / RFU, RASA1 / Fold change vs veh, RASA1 / RFU, RB1 / Fold change vs veh, RB1 / RFU, PPFIA1 / Fold change vs veh, PPFIA1 / RFU, MAT2A / Fold change vs veh, MAT2A / RFU, CCT5 / Fold change vs veh, CCT5 / RFU, WDR92 / Fold change vs veh, WDR92 / RFU, CUX1 / Fold change vs veh, CUX1 / RFU, TTC7A / Fold change vs veh, TTC7A / RFU, TMEM135 / Fold change vs veh, TMEM135 / RFU, DEPTOR / Fold change vs veh, DEPTOR / RFU, CPM / Fold change vs veh, CPM / RFU, DNAJB6 / Fold change vs veh, DNAJB6 / RFU, CACNA2D3 / Fold change vs veh, CACNA2D3 / RFU, DTX4 / Fold change vs veh, DTX4 / RFU, TFCP2 / Fold change vs veh, TFCP2 / RFU, GMCL1 /// GMCL1P1 / Fold change vs veh, GMCL1 /// GMCL1P1 / RFU, AEBP2 / Fold change vs veh, AEBP2 / RFU, SNHG1 /// SNORD22 /// SNORD25 /// SNORD26 /// SNORD27 /// SNORD28 /// SNORD29 /// SNORD31 / Fold change vs veh, SNHG1 /// SNORD22 /// SNORD25 /// SNORD26 /// SNORD27 /// SNORD28 /// SNORD29 /// SNORD31 / Fold change (Aza/veh), C12orf56 (ProbeSet 11735607_a_at) / Fold change (ACY-1035/veh), C12orf56 (ProbeSet 11735607_a_at) / Fold change (Aza/veh), FGFR1OP (ProbeSet 11751329_s_at) / Fold change (ACY-1035/veh), FGFR1OP (ProbeSet 11751329_s_at) / Fold change (Aza/veh), VPS36 (ProbeSet 11739960_a_at) / Fold change (ACY-1035/veh), VPS36 (ProbeSet 11739960_a_at) / RFU SYPL1 (11715823_x_at) / Fold change /veh SYPL1 (11715823_x_at) / RFU IGFBP7 (11715501_s_at) / Fold change /veh IGFBP7 (11715501_s_at) / RFU REEP3 (11722064_at) / Fold change /veh REEP3 (11722064_at) / RFU IGLL1 (11728026_x_at) / Fold change /veh IGLL1 (11728026_x_at): dose or concentration left out as unconfirmed
Settings: MV-4-11 cells, 48 hours

Nc1ccc(-c2cccs2)cc1NC(=O)c1ccc2c(c1)cc(C1CC1)n2CCN1CCOCC1 [ACY-1035] was tested, and the “RFU KRTAP10-11 (11738290_x_at)” value was 38.61 RFU.
